Reference: ChEMBL document CHEMBL1817590, “Hippocampal and cortical neuronal growth mediated by the small molecule natural product clovanemagnolol” (2011)

What was measured:
Cortical neurone [1] = test: Neurotrophic activity in isolated embryonic mouse embryonic Cortical neurons assessed as induction of neurite outgrowth at 0.01 uM after 48 hrs relative to control; format: functional
Cortical neurone [2] = test: Neurotrophic activity in isolated embryonic mouse embryonic Cortical neurons assessed as induction of neurite outgrowth at 1 uM after 48 hrs relative to control; format: functional
Hippocampal neuron = test: Neurotrophic activity in isolated embryonic mouse brain Hippocampal neurons assessed as induction of neurite outgrowth after 48 hrs relative to control; format: functional
[3] = Neurotrophic activity in isolated embryonic mouse brain Hippocampal neurons assessed as induction of neurite outgrowth at 0.01 uM after 48 hrs relative to control; format: functional, Hippocampal neuron
Cortical neurone [4] = test: Neurotrophic activity in isolated embryonic mouse embryonic Cortical neurons assessed as induction of neurite outgrowth after 48 hrs relative to control; format: functional
[5] = target: T1, Choline O-acetyltransferase (Rattus norvegicus) (UniProt P32738); test: Increase in choline acetyltransferase activity in rat brain neurons at […] after 10 days relative to control; format: tissue-based
T1 sequence (whole entry): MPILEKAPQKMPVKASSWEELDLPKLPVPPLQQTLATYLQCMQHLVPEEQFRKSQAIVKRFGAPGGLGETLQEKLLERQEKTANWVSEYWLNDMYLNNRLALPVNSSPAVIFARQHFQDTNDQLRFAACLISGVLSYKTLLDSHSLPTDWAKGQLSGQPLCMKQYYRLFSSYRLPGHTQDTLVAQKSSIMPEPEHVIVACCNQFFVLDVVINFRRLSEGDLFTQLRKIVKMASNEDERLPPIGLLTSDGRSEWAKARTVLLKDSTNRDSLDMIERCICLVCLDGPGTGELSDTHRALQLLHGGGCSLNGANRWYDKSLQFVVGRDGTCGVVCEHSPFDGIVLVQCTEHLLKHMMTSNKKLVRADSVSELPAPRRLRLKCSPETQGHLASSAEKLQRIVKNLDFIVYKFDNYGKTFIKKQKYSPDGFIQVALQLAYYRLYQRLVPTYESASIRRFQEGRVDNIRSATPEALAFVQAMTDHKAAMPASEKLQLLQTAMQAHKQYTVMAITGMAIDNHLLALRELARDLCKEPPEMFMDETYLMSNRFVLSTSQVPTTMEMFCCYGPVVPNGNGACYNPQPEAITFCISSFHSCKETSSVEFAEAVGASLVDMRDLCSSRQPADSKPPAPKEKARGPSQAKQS

[6] = Neurotrophic activity in isolated embryonic mouse brain Hippocampal neurons assessed as induction of neurite outgrowth at 1 uM after 48 hrs relative to control; format: functional, Hippocampal neuron
[7] = Neurotrophic activity in isolated embryonic mouse brain Hippocampal neurons assessed as induction of neurite outgrowth at 0.1 uM after 48 hrs relative to control; format: functional, Hippocampal neuron
Cortical neurone [8] = test: Neurotrophic activity in isolated embryonic mouse embryonic Cortical neurons assessed as induction of neurite outgrowth at 0.1 uM after 48 hrs relative to control; format: functional

Activity [5]	SMILES	Activity (Cortical neurone [1])	Activity (Cortical neurone [2])	Activity (Hippocampal neuron)	Activity [3]	Activity (Cortical neurone [4])	Activity [6]	Activity [7]	Activity (Cortical neurone [8])
142%	C=CCc1ccc(O)c(-c2cc(CC=C)ccc2O[C@H]2CC(C)(C)[C@@H]3CC[C@]4(C)C[C@]23CC[C@H]4O)c1 [CLOVANEMAGNOLOL]	44.2%	-80.7%	Dose-dependent effect	62.8%	Dose-dependent effect	-83.9%	26.5%	22.7%
–	C=CCc1ccc(O)c(-c2cc(CC=C)ccc2O)c1 [MAGNOLOL]	20.2%	-74.6%	Dose-dependent effect	50.1%	Dose-dependent effect	-69%	23.9%	55.6%
